{"source": "paper PMC8146789", "about": "“20-Hydroxyecdysone, from Plant Extracts to Clinical Use: Therapeutic Potential for the Treatment of Neuromuscular, Cardio-Metabolic and Respiratory Diseases” (Biomedicines, 2021)", "key": {"[1]": {"test": "genotoxicity (preclinical regulatory studies)", "conditions": "Biophytis, unpublished data", "from_the_text": "More recently, a purified to pharmaceutical grade 20E (≥97% 20E purity) was used as a drug candidate in preclinical regulatory studies including safety pharmacology, genotoxicity and repeated toxicology in rodents (rats) and non-rodents (dog)."}, "[2]": {"design": "method as in PMID 21439380, PMID 33819630", "conditions": "mice, oral; ref [126],[127]; cited from earlier work"}, "ovariectomized rats": {"tested_on": "ovariectomized rats", "design": "method as in Seidlova-Wuttke et al. [57],[94]", "conditions": "up to 500 mg/kg daily for 3 months, ref Seidlova-Wuttke et al. [57],[94]; cited from earlier work"}, "[3]": {"design": "method as in doi:10.1016/0924-977X(96)83007-0", "conditions": "7.5–10 mg/day, 1 month; ref [165]; cited from earlier work"}, "C2C12 myotubes": {"tested_on": "C2C12 myotubes", "design": "method as in PMID 24974955", "conditions": "20E 1 μM; ref [54]; cited from earlier work"}, "rabbits": {"tested_on": "rabbits", "conditions": "up to 100 mg/kg, ref [121]; cited from earlier work"}, "[4]": {"design": "method as in ref [177] = [177]; 177. Dustmukhamedova D.K.H. Kamilovz A.T. The characteristic of energy metabolism disorders and its correction in children with celiac disease Am. J. Med. Medic. Sci. 2020 10 780 783", "conditions": "children 3–14, 2.5 mg/kg/day, 14 days; ref [177]; cited from earlier work"}, "[5]": {"design": "method as in PMID 31190566", "conditions": "high fructose fed gerbils; ref [61]; cited from earlier work"}, "ERα": {"tested_on": "ERα", "design": "method as in PMID 18220764", "conditions": "cited from earlier work"}, "Lambliasis": {"tested_on": "Lambliasis", "design": "method as in PMID 20614521", "conditions": "5 mg 4×/day, 10 days; ref [168]; cited from earlier work"}, "[6]": {"design": "method as in PMID 15559639", "conditions": "hepatitis B, 5 mg b.i.d., 30 days; ref [159]; cited from earlier work"}, "[7]": {"design": "method as in PMID 33819630", "conditions": "male Wistar rats, oral [3H]20E; ref [127]; cited from earlier work"}, "[8]": {"conditions": "30 days, ref [158], cited from earlier work"}, "C2C12 cells": {"tested_on": "C2C12 cells", "design": "method as in ref [103] = [103]; 103. Dilda P. Foucault A.S. Serova M. On S. Raynal S. Veillet S. Dioh W. Lafont R. BIO101, a drug candidate targeting Mas receptor for the treatment of age-reated muscle degeneration. From molecular t", "conditions": "C2C12 myotubes, ref [103], cited from earlier work"}}, "note": "Read-outs that look alike come from different tables or passages of the source."}
{"smiles": "CC(C)(O)CC[C@@H](O)[C@](C)(O)[C@H]1CC[C@@]2(O)C3=CC(=O)[C@@H]4C[C@@H](O)[C@@H](O)C[C@]4(C)[C@H]3CC[C@]12C", "note": "[20E, 2β,3β,14α,20R,22R,25-hexahydroxy-5β-cholest-7-en-6-one]", "values": [{"measurement": "genotoxic effects", "setting": "[1]", "result": "no genotoxic effects"}, {"measurement": "time at which 20E starts to reach the large intestine", "setting": "[2]", "result": "ca. 30 min"}, {"measurement": "detrimental effects", "setting": "ovariectomized rats", "result": "no stated detrimental effects"}, {"measurement": "patients with improvement of libido and sexual activity", "setting": "[3]", "result": "Improvement of libido and sexual activity in 75% of patients"}, {"measurement": "myotube diameter", "setting": "C2C12 myotubes", "result": "enhanced myotube diameter"}, {"measurement": "effects after administration", "setting": "rabbits", "result": "no effects were seen"}, {"measurement": "output of celiac disease study", "setting": "[4]", "result": "Reduction in symptoms Improvement of energy metabolism"}, {"measurement": "effect on adiposity", "setting": "[5]", "result": "efficient"}, {"measurement": "binding to nuclear receptor", "setting": "ERα", "result": "negative"}, {"measurement": "parasite elimination", "setting": "Lambliasis", "result": "Therapy eliminated most parasites within 10 days"}, {"measurement": "liver state", "setting": "[6]", "result": "In case of hepatitis B, improvement of liver state"}, {"measurement": "radioactivity in urine, of the total radioactivity recovered", "setting": "[7]", "result": 1.40, "unit": "%"}, {"measurement": "time to completed elimination of 20E and its metabolites", "setting": "[7]", "result": "≤ 48", "unit": "h"}, {"measurement": "sexual function output", "setting": "[8]; 5 mg 3×/day, age 40–60 M", "result": "Improvement of sexual function during recovery from myocardial infarction"}, {"measurement": "sexual function output", "setting": "[8]; 5 mg, 2×/day", "result": "Improved sperm quality and copulative function in patients with disturbed spermatogenesis as a complication of urologic diseases"}, {"measurement": "optimal concentration for anabolic effect on protein synthesis", "setting": "C2C12 cells; 0.01–10 μM tested", "result": 1, "unit": "µM"}, {"measurement": "protein synthesis stimulatory activity", "setting": "C2C12 cells; 20E 0.01–10 μM, IGF-1 100 ng/mL", "result": "equally active as insulin-like growth factor-1 (IGF-1)"}]}
